Measured values: patent US9624213B2 (Plexxikon Inc., priority 2011, dated 2017)

What was measured:
B-Raf V600E = B-Raf V600E (Homo sapiens (Human), UniProt P15056, V600E); assay: B-Raf V600E kinase biochemical activity (AlphaScreen, biotin-MEK1 substrate); settings: 100 μM ATP
Method: Assays for biochemical and cell based activity are known in the art, for example, as described in PCT publication WO 2007/002433, the disclosure of which is hereby incorporated by reference as it relates to such assays. For example, the biochemical activity IC50 values are determined with respect to inhibition of B-Raf V600E kinase activity or p-Erk kinase activity, where inhibition of phosphorylation of a peptide substrate is measured as a function of compound concentration. Compounds to be tested are diluted in dimethyl sulfoxide to a concentration of 0.1 mM. These are serially diluted 15 μL into 30 μL of dimethyl sulfoxide seven times in 96 well plates for a total of 8 dilution points, and for each dilution point 1 μL is added to a well of an assay plate. Plates are prepared such that each well in a 384 well plate contains 1 μL of compound in 10 μL volume with 0.1 ng Raf enzyme (i.e. any of B-Raf, c-Raf-1 or B-Raf V600E, Upstate Biotechnology or prepared by methods known to one of skill in the art), 50 mM HEPES, pH 7.0, 50 mM NaCl, 2 mM MgCl2, 1 mM MnCl2, 0.01% Tween-20, 1 mM DTT, and 100 nM biotin-MEK1 as substrate. The reaction is started with addition of 10 μL of 200 μM ATP (i.e. final 100 μM ATP). After incubation of the kinase reaction for 45 minutes at room temperature, 5 μL/well of Stop Solution is added (25 mM Hepes pH 7.5, 100 mM EDTA, 0.01% BSA with donor beads (Streptavidin coated beads, Perkin Elmer), acceptor beads (Protein A coated, Perkin Elmer), and anti phosphor MEK1/2 antibody (CellSignal), each at final concentration 10 μg/mL). The plates are incubated for 3 hours at room temperature and read on Envision reader (Perkin Elmer). Phosphorylation of Mek1 results in binding of the anti-phosphor-MEK1/2antibody and association of the donor and acceptor beads such that signal correlates with kinase activity. The signal vs. compound concentration is used to determine the IC50.

A375 = assay: A375_P-ERK / A375 cell activity; type: cell-based; settings: Homo sapiens, A-375; A375 cells (A375_P-ERK)
Method: (§1) Compounds are assessed in a variety of cell based assays. For example human cell lines with B-Raf V600E mutation (A375 melanoma, SKMEL3 melanoma, and COLO205 colon adenocarcinoma), as well as tumorigenic cell lines with wild-type B-RAF (SW620 colon adenocarcinoma) or with Ras mutations (SKMEL2 melanoma and IPC298 melanoma). Similar assays may be used to assess additional tumorigenic cell lines with Ras mutations, including, but not limited to, M202, M207, M243, M244, M296, S117, HCT116, HCT15, DLD1, MiaPaCa, A549, NCI-H23, NCI-H460, HOP62, MDA-MB231, Hs-578T, HL60, MOLT-4, and CCRF-CEM.
(§2) On day 1, cells are counted, then centrifuged in a conical tube for 5 minutes at 1000 rpm. The supernatant is removed and cells are re-suspended as follows: • SW620 (ATCC catalog #CCL-27): resuspend in Leibovitz's L-15 medium, 2 mM L-glutamine, 10% fetal bovine serum to 6×10^4 cells/mL. • A375 (ATCC catalog #CRL-1619): resuspend in Dulbecco's modified Eagle's medium, 4 mM L-glutamine, 4.5 g/L D-glucose, 10% fetal bovine serum to 6×10^4 cells/mL. • COLO205 (ATCC catalog #CCL-222): resuspend in RPMI 1640, 2 mM L-glutamine, 1.5 g/L sodium bicarbonate, 4.5 g/L D-glucose, 10 mM HEPES, 1.0 mM sodium pyruvate, 10% fetal bovine serum to 6×10^4 cells/mL. • SKMEL2 (ATCC catalog #HTB-68): resuspend in Minimum Eagle essential medium, 2 mM L-glutamine, 1.5 g/L sodium bicarbonate, 0.1 mM non-essential amino acids, 1.0 mM sodium pyruvate, 10% fetal bovine serum to 6×10^4 cells/mL. • SKMEL3 (ATCC catalog #HTB-69): resuspend in McCoy's 5A medium, 1.5 mM L-glutamine, 15% fetal bovine serum to 6×10^4 cells/mL. • IPC298 (DSMZ catalog #ACC 251): resuspend in RPMI 1640, 2 mM L-glutamine, 10% fetal bovine serum to 6×10^4 cells/mL.
(§3) The cells are plated, 50 μL in each well of a 96-well dish (Corning 3610) and incubated at 37° C. in 5% CO2 overnight, cells plated to a final concentration of cells as follows: • SW620: 5,000 cells per well. • A375: 2,000 cells per well. • COLO205: 2,000 cells per well. • SKMEL2: 2,000 cells per well. • SKMEL3: 3,000 cells per well. • IPC298: 2,000 cells per well.
(§4) On day 2, compound at a maximum concentration of 5 mM is serially diluted 1:3 (e.g. 10 μL with 30 μL dimethyl sulfoxide) for a total of 8 point titration with DMSO as a control. A 1 μL aliquot of each dilution point and control is added to 249 μL growth media and 50 μL is added to a well containing cells, providing 10 μM compound at the maximum concentration point. The cells are incubated for 3 days at 37° C. in 5% CO2.
(§5) On day 5, ATPlite 1 step Luminescence Assay System (Perkin Elmer #6016739) is brought to room temperature along with the cell cultures. ATPlite is added 25 μL to each well, shake for 2 minutes, and the cells are incubated at room temperature for 10 minutes, then luminescence is read on Satire reader. The measured luminescence correlates directly with cell number, such that the reading as a function of compound concentration is used to determine the IC50 value.

COLO205 = COLO205 cell growth inhibitory activity (ATPlite); type: cell-based; settings: Homo sapiens, COLO 205, 72 h; COLO205 cells, growth inhibition, 3 days
Method: as §1, §2, §3, §4, §5

Sequence of B-Raf V600E (P15056 whole entry V600E): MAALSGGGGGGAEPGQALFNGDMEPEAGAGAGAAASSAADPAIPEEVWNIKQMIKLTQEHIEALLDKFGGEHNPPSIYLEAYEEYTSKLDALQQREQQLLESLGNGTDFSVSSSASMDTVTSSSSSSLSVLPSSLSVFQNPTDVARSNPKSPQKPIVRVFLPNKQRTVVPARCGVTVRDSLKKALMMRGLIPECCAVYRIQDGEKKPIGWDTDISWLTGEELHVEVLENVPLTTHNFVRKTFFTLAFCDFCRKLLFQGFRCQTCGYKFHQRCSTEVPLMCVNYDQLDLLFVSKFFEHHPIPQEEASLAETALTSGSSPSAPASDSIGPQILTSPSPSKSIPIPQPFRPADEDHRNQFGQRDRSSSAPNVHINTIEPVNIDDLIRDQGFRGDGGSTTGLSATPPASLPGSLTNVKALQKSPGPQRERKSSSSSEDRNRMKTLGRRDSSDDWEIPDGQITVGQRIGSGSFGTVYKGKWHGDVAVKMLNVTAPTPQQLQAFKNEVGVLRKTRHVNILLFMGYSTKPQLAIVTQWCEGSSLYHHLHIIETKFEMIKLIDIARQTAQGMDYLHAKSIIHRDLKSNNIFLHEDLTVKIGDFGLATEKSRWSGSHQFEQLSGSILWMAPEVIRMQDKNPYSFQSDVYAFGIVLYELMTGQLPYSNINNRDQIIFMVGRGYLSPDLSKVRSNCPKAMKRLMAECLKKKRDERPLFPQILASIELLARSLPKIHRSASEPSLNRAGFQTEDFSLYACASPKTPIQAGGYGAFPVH

Row | Compound | IC50 (B-Raf V600E) [µM] | IC50 (A375) [µM] | IC50 (COLO205) [µM]
1 | Cn1cc(-c2cnc3[nH]cc(C(=O)c4cccc(NS(=O)(=O)CC5CC5)c4F)c3c2)cn1 [Compound P-0042, 1-cyclopropyl-N-[2-fluoro-3-[5-(1-methylpyrazol-4-yl)-1H-pyrrolo[2,3-b]pyridine-3-carbonyl]phenyl]methanesulfonamide] | < 0.1 |  | 
2 | CN(C)S(=O)(=O)Nc1ccc(F)c(C(=O)c2c[nH]c3ncc(-c4ccc(C5(C#N)CC5)cc4)cc23)c1F [Compound P-0237, 5-[4-(1-cyanocyclopropyl)phenyl]-3-[3-(dimethylsulfamoylamino)-2,6-difluoro-benzoyl]-1H-pyrrolo[2,3-b]pyridine] | < 0.1 |  | 
3 | CCN(C)S(=O)(=O)Nc1ccc(F)c(C(=O)c2c[nH]c3ncc(-c4ccc(C5(C#N)CC5)cc4)cc23)c1F [Compound P-0239, 5-[4-(1-cyanocyclopropyl)phenyl]-3-[3-[[ethyl(methyl)sulfamoyl]amino]-2,6-difluoro-benzoyl]-1H-pyrrolo[2,3-b]pyridine] | < 0.1 |  | 
4 | N#CC1(c2ccc(-c3cnc4[nH]cc(C(=O)c5c(F)ccc(NS(=O)(=O)N6CCCC6)c5F)c4c3)cc2)CC1 [Compound P-0248, N-[3-[5-[4-(1-cyanocyclopropyl)phenyl]-1H-pyrrolo[2,3-b]pyridine-3-carbonyl]-2,4-difluoro-phenyl]pyrrolidine-1-sulfonamide] | < 0.1 |  | 
5 | COc1ncc(-c2cnc3[nH]cc(C(=O)c4c(F)ccc(NS(=O)(=O)N5CCCC5)c4F)c3c2)s1 [Compound P-0270, N-[2,4-difluoro-3-[5-(2-methoxythiazol-5-yl)-1H-pyrrolo[2,3-b]pyridine-3-carbonyl]phenyl]pyrrolidine-1-sulfonamide] |  | < 1 | < 1
6 | O=C(c1c(F)ccc(NS(=O)(=O)N2CCCC2)c1F)c1c[nH]c2ncc(-c3ccnc(OC4CCC4)c3)cc12 [Compound P-0286, N-[3-[5-[2-(cyclobutoxy)-4-pyridyl]-1H-pyrrolo[2,3-b]pyridine-3-carbonyl]-2,4-difluoro-phenyl]pyrrolidine-1-sulfonamide] |  | > 1 | < 1
7 | O=C(c1c(F)ccc(NS(=O)(=O)N2CCC(F)(F)C2)c1F)c1c[nH]c2ncc(-c3cnc(C4CC4)nc3)cc12 [Compound P-0288, N-[3-[5-(2-cyclopropylpyrimidin-5-yl)-1H-pyrrolo[2,3-b]pyridine-3-carbonyl]-2,4-difluoro-phenyl]-3,3-difluoro-pyrrolidine-1-sulfonamide] |  | < 1 | < 1
8 | O=C(c1c(F)ccc(NS(=O)(=O)N2CCCC2)c1F)c1c[nH]c2ncc(-c3cc(C(F)(F)F)ncn3)cc12 [Compound P-0294, N-[2,4-difluoro-3-[5-[6-(trifluoromethyl)pyrimidin-4-yl]-1H-pyrrolo[2,3-b]pyridine-3-carbonyl]phenyl]pyrrolidine-1-sulfonamide] |  | > 1 | > 1
9 | CCN(C)S(=O)(=O)Nc1ccc(F)c(C(=O)c2c[nH]c3ncc(-c4ccc(C#N)cc4)cc23)c1F [Compound P-0300, 5-(4-cyanophenyl)-3-[3-[[ethyl(methyl)sulfamoyl]amino]-2,6-difluoro-benzoyl]-1H-pyrrolo[2,3-b]pyridine] |  | < 1 | > 1
10 | CCN(C)S(=O)(=O)Nc1ccc(F)c(C(=O)c2c[nH]c3ncc(-c4cccc(N(C)C)c4)cc23)c1F [Compound P-0302, 5-[3-(dimethylamino)phenyl]-3-[3-[[ethyl(methyl)sulfamoyl]amino]-2,6-difluoro-benzoyl]-1H-pyrrolo[2,3-b]pyridine] |  | < 1 | < 1
11 | CCN(C)S(=O)(=O)Nc1ccc(F)c(C(=O)c2c[nH]c3ncc(-c4ccc(C(=O)NC5CC5)nc4)cc23)c1F [Compound P-0312, N-cyclopropyl-5-[3-[3-[[ethyl(methyl)sulfamoyl]amino]-2,6-difluoro-benzoyl]-1H-pyrrolo[2,3-b]pyridin-5-yl]pyridine-2-carboxamide] |  | < 1 | < 1
12 | CN1CCN(c2cc(-c3cnc4[nH]cc(C(=O)c5c(F)ccc(NS(=O)(=O)N6CCCC6)c5F)c4c3)ncn2)CC1 [Compound P-0319, N-[2,4-difluoro-3-[5-[6-(4-methylpiperazin-1-yl)pyrimidin-4-yl]-1H-pyrrolo[2,3-b]pyridine-3-carbonyl]phenyl]pyrrolidine-1-sulfonamide] |  | < 1 | < 1
